{"source": "patent US9168286B2", "about": "“Methods and compositions for use in treatment of patients with autoantibody positive disease” (Human Genome Sciences, Inc., priority 2005, dated 2015)", "system": "subjects with RA", "assay": "Phase 2 clinical trial of belimumab in rheumatoid arthritis: biomarkers", "type": "in vivo, human", "from_the_text": "ACR20 response increased to approximately 40% at Week 48."}
{"substance": "belimumab: an antibody that neutralizes Neutrokine-alpha protein", "values": [{"measurement": "Effects on biomarkers", "setting": "continued treatment in the extension period", "result": "increased or were sustained"}, {"measurement": "CD20+ B-cells", "setting": "human, in vivo", "result": "statistically significant reductions"}, {"measurement": "RF (rheumatoid factor)", "setting": "human, in vivo", "result": "statistically significant reductions"}, {"measurement": "activated B-cells", "setting": "human, in vivo", "result": "statistically significant reductions"}, {"measurement": "memory cells", "setting": "human, in vivo", "result": "increased within first month of treatment and slowly declined with continued treatment"}, {"measurement": "naïve B-cells", "setting": "human, in vivo", "result": "statistically significant reductions"}]}
